Source: patent US20030013660A1, “Dioxolane analogs for improved inter-cellular delivery” (Shire BioChem Inc., priority 2000, published 2003)

Columns and labels:
CCRF-CEM = assay: MTT or WST-1 assay at 72 hr (24 hr drug exposure, wash, 48 hr); format: cell-based; conditions: Homo sapiens, CCRF-CEM, read-out: IC50 CCRF-CEM 24 h, MMT or WST-1 at 72 hr, 24 h exposure, single experiment
Protocol: (§1) Exposition of 24hr to drug, washed, and incubated for another 48hr (total of 72hr assay)

CEM/dCK- [1] = assay: as above; format: cell-based; conditions: for Resistance Factor*: CEM/dCK- versus CCRF-CEM, single experiment; for IC50: read-out: IC50 CEM/dCK- 24 h, MMT or WST-1 at 72 hr, 24 h exposure, single experiment
Protocol: as §1

MCF-7 [2] = assay: MTT assay at 72 hr (24 hr drug exposure, wash, 48 hr); format: cell-based; conditions: Homo sapiens, MCF7, read-out: IC50 MCF-7 24 h, MTT at 72 hr, 24 h exposure, single experiment
Protocol: as §1

H-460 [3] = assay: as above; format: cell-based; conditions: Homo sapiens, NCI-H460, read-out: IC50 H-460 24 h, MTT at 72 hr, 24 h exposure, single experiment
Protocol: as §1

SF-268 [4] = assay: as above; format: cell-based; conditions: Homo sapiens, SF-268, read-out: IC50 SF-268 24 h, MTT at 72 hr, 24 h exposure, single experiment
Protocol: as §1

SF-268 [5] = assay: 3H-TdR (3H-thymidine) incorporation assay at 72 hr; format: cell-based, Human; conditions: 3H-TdR incorporation at 72 hr
H-460 [6] = assay: 3H-TdR (3H-thymidine) incorporation assay at 72 hr; format: cell-based, Human; conditions: 3H-TdR incorporation at 72 hr
MCF-7 [7] = assay: 3H-TdR (3H-thymidine) incorporation assay at 72 hr; format: cell-based, Human; conditions: 3H-TdR incorporation at 72 hr
CEM/dCK- [8] = assay: 3H-TdR (3H-thymidine) incorporation assay at 72 hr; format: cell-based; conditions: Homo sapiens, CCRF-CEM, read-out: IC50 CEM/dCK- 24 h, 24 h drug exposure, wash, another 48 hr; deoxycytidine kinase-deficient CCRF-CEM
Protocol: Table of IC50 Values (μM) for Controls
Exposition of 24 hr to drug, wash, incubated for another 48 hr (total of 72 hr assay)
(3H-Thymidine Incorporation Assay)

SMILES	IC50 (CCRF-CEM)	Resistance Factor* (CEM/dCK- [1])	IC50 (CEM/dCK- [1])	IC50 (MCF-7 [2])	IC50 (H-460 [3])	IC50 (SF-268 [4])	IC50 (SF-268 [5]; Homo sapiens, SF-268, read-out: IC50 SF-268 24 h, 24 h drug exposure, wash, another 48 hr)	IC50 (SF-268 [5]; read-out: IC50 SF-268 24 h, 24 h drug exposure, wash, another 48 hr)	IC50 (H-460 [6]; Homo sapiens, NCI-H460, read-out: IC50 H-460 24 h, 24 h drug exposure, wash, another 48 hr)	IC50 (H-460 [6]; read-out: IC50 H-460 24 h, 24 h drug exposure, wash, another 48 hr)	IC50 (MCF-7 [7]; Homo sapiens, MCF7, read-out: IC50 MCF-7 24 h, 24 h drug exposure, wash, another 48 hr)	IC50 (MCF-7 [7]; read-out: IC50 MCF-7 24 h, 24 h drug exposure, wash, another 48 hr)	IC50 (CEM/dCK- [8])
CC(C)C[C@H](NC(=O)[C@H](C)N)C(=O)Nc1ccn([C@@H]2CO[C@H](CO)O2)c(=O)n1.O=C(O)C(F)(F)F.O=C(O)C(F)(F)F [Compound 265, 2-(2-AMINO- PROPIONYLAMINO)-4- METHYL-PENTANOIC ACID [1-(2-HYDROXYMETHYL- [1,3]DIOXOLAN-4-YL)-2- OXO-1,2-DIHYDRO- PYRIMIDIN-4-YL]-AMIDE, BIS TRIFLUOROACETIC ACID SALT]	30 µM	>3	> 100 µM	77 µM	> 100 µM	> 100 µM	–	–	–	–	–	–	–
CCCCC(C)(C)C(=O)OC[C@H]1OC[C@@H](n2ccc(N)nc2=O)O1.Cl (stereo in doubt) [Compound 107, 2,2-DIMETHYLHEXANOIC ACID 4-(4-AMINO-2-OXO- 2H-PYRIMIDIN-1-YL)-1,3- DIOXOLAN-2-YLMETHYL ESTER HYDROCHLORIDE]	0.024 µM	2.042	49 µM	0.25 µM	0.27 µM	3.4 µM	–	–	–	–	–	–	–
CC(C)CCCCC(=O)Nc1ccn([C@@H]2CO[C@H](CO)O2)c(=O)n1 [Compound 277, 6-METHYL-HEPTANOIC ACID [1-(2-HYDROXYMETHYL- [1,3]DIOXOLAN-4-YL)-2- OXO-1,2-DIHYDRO- PYRIMIDIN-4-YL]-AMIDE]	0.48 µM	>208	> 100 µM	0.32 µM	2 µM	7.3 µM	0.21 µM	0.19 µM	0.2 µM	0.29 µM	0.013 µM	0.016 µM	> 100 µM
CC(C)C(C(=O)OC[C@H]1OC[C@@H](n2ccc(N)nc2=O)O1)c1ccccc1 (mixture of isomers) [Compound 262, 3-METHYL-2-PHENYL- BUTYRIC ACID 4-(4- AMINO-2-OXO-2H- PYRIMIDIN-1-YL)- [1,3]DIOXOLAN-2- YLMETHYL ESTER]	0.88 µM	>114	> 100 µM	16 µM	0.9 µM	> 100 µM	–	–	–	–	–	–	–
